Measured values published in ChEMBL document CHEMBL5390268, “α-Pyrone Derivatives from Calcarisporium arbuscula Discovered by Genome Mining” (J Nat Prod, 2023).
Calls of active or inactive are those of the source. The calls are words filed in the database; no cut-off is given here.

Experiments:
[1] = system: HCT-116; test: Cytotoxicity against human HCT-116 cells assessed as inhibition of cell proliferation incubated for 48 hrs by MTS assay; type: functional, cell-based; details: HCT-116, 48 h
[2] = system: HepG2; test: Cytotoxicity against human HepG2 cells assessed as inhibition of cell proliferation incubated for 48 hrs by MTS assay; type: functional, cell-based; details: HepG2, 48 h
[3] = system: B16; test: Cytotoxicity against mouse B16 cells assessed as inhibition of cell proliferation incubated for 48 hrs by MTS assay; type: functional, cell-based; details: B16, 48 h
[4] = system: Saccharomyces cerevisiae; test: Antimicrobial activity against Saccharomyces cerevisiae assessed as fungal growth inhibition by absorbance based assay; type: functional, organism-based
[5] = system: Candida albicans; test: Antimicrobial activity against Candida albicans assessed as fungal growth inhibition by absorbance based assay; type: functional, organism-based
[6] = system: Bacillus subtilis; test: Antimicrobial activity against Bacillus subtilis assessed as bacterial growth inhibition incubated for 24 hrs by absorbance based assay; type: functional, organism-based
[7] = system: Staphylococcus aureus; test: Antimicrobial activity against Staphylococcus aureus assessed as bacterial growth inhibition incubated for 24 hrs by absorbance based assay; type: functional, organism-based
[8] = system: Escherichia coli; test: Antimicrobial activity against Escherichia coli assessed as bacterial growth inhibition incubated for 24 hrs by absorbance based assay; type: functional, organism-based
[9] = system: HCT-116; test: Cytotoxicity against human HCT-116 cells assessed as inhibition of cell proliferation at 20 ug/ml incubated for 48 hrs by MTS assay; type: functional, cell-based; details: dose 20.0 µg/ml
[10] = system: HepG2; test: Cytotoxicity against human HepG2 cells assessed as inhibition of cell proliferation at 20 ug/ml incubated for 48 hrs by MTS assay; type: functional, cell-based; details: dose 20.0 µg/ml
[11] = system: B16; test: Cytotoxicity against mouse B16 cells assessed as inhibition of cell proliferation at 20 ug/ml incubated for 48 hrs by MTS assay; type: functional, cell-based; details: dose 20.0 µg/ml

SMILES	IC50 [1] [µM]	IC50 [2] [µM]	IC50 [3] [µM]	inhibition [4]	inhibition [5]	inhibition [6]	inhibition [7]	inhibition [8]	inhibition [9]	inhibition [10]	inhibition [11]
C/C=C/CC/C=C/c1cc(OC)cc(=O)o1	21.7	41.8	38.5	inactive	inactive	inactive	inactive	inactive			
CCCCC/C=C/c1cc(OC)cc(=O)o1				inactive	inactive	inactive	inactive	inactive	inactive	inactive	inactive
CCCCC[C@@H](O)[C@H](O)c1cc(OC)cc(=O)o1				inactive	inactive	inactive	inactive	inactive	inactive	inactive	inactive
C/C=C/CC[C@@H](O)[C@H](O)c1cc(OC)cc(=O)o1				inactive	inactive	inactive	inactive	inactive	inactive	inactive	inactive
